These results are taken from patent publication US11613522B2, “Herbicidally active 3-phenylisoxazoline-5-carboxamides of tetrahydro- and dihydrofurancarboxamides” (BAYER AKTIENGESELLSCHAFT, priority 2017, dated 2023).

Holding throughout (assay type): in vivo
Assay [1] deals with Alopecurus myosuroides. The experiment in a line: Pre-emergence herbicidal activity against ALOMY. Particulars: Alopecurus myosuroides, 504 h, dosage 80 g/ha, scored visually after about 3 weeks vs untreated controls. In short, it runs like this:
(§1)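 Seeds sown in pots and covered with soil; compounds formulated as WP or EC applied to the soil surface as aqueous suspension or emulsion with 0.5% additive at 600 l/ha water. Pots held in greenhouse; activity scored visually about 3 weeks later as % versus untreated controls (100% = dead).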

Assay [2] relates to Avena fatua. The experiment in a line: Pre-emergence herbicidal activity against AVEFA. Particulars: Avena fatua, 504 h, dosage 80 g/ha, scored visually after about 3 weeks vs untreated controls, read-out: Pre-emergence herbicidal activity in % against AVEVA (AVEFA). In short, it runs like this: as §1
Another assay relates to Cyperus esculentus. The experiment in a line: Pre-emergence herbicidal activity against CYPES. Particulars: dosage 80 g/ha, scored visually after about 3 weeks vs untreated controls. The source says: (§2) 1. Pre-emergence herbicidal action against harmful plants and crop plant compatibility Seeds of monocotyledonous and dicotyledonous weed plants and crop plants are placed in plastic or wood fiber pots and covered with soil. The compounds of the invention, formulated in the form of wettable powders (WP) or as emulsion concentrates (EC), are then applied onto the surface of the covering soil as aqueous suspension or emulsion with addition of 0.5% additive at a water application rate of 600 l/ha (converted). After the treatment, the pots are placed in a greenhouse and kept under good growth conditions for the trial plants. After about 3 weeks, the effect of the preparations is scored visually in comparison with untreated controls as percentages. For example, 100% activity=the plants have died, 0% activity=like control plants. [table]

Assay [3] deals with Echinochloa crus-galli. Briefly: Pre-emergence herbicidal activity against ECHCG. Particulars: Echinochloa crus-galli, 504 h, dosage 80 g/ha, scored visually after about 3 weeks vs untreated controls. In short, it runs like this: as §1
Assay [4] relates to Lolium rigidum. Briefly: Pre-emergence herbicidal activity against LOLRI. The conditions noted are these: Lolium rigidum, 504 h, dosage 80 g/ha, scored visually after about 3 weeks vs untreated controls. The method in brief:
as §1

Assay [5] relates to Setaria viridis. Briefly: Pre-emergence herbicidal activity against SETVI. Particulars: Setaria viridis, 504 h, dosage 80 g/ha, scored visually after about 3 weeks vs untreated controls. In short, it runs like this:
as §1

Assay [6] relates to Amaranthus retroflexus. The experiment in a line: Pre-emergence herbicidal activity against AMARE. The conditions noted are these: Amaranthus retroflexus, 504 h, dosage 80 g/ha, scored visually after about 3 weeks vs untreated controls. In short, it runs like this: as §1
In assay [7] the test system is Pharbitis purpurea. The experiment in a line: Pre-emergence herbicidal activity against PHBPU. The conditions noted are these: dosage 80 g/ha, scored visually after about 3 weeks vs untreated controls. The method in brief: as §1
Assay [8] concerns Polygonum convolvulus. The experiment in a line: Pre-emergence herbicidal activity against POLCO. The conditions noted are these: Fallopia convolvulus, 504 h, dosage 80 g/ha, scored visually after about 3 weeks vs untreated controls. In short, it runs like this:
as §1

The test system of assay [9] is Stellaria media. The experiment in a line: Pre-emergence herbicidal activity against STEME. The conditions noted are these: Stellaria media, 504 h, dosage 80 g/ha, scored visually after about 3 weeks vs untreated controls. The method in brief:
as §1

Assay [10] deals with Viola tricolor. The experiment in a line: Pre-emergence herbicidal activity against VIOTR. The conditions noted are these: Viola tricolor, 504 h, dosage 80 g/ha, scored visually after about 3 weeks vs untreated controls. In short, it runs like this: as §1
The subject of assay [11] is Veronica persica. The experiment in a line: Pre-emergence herbicidal activity against VERPE. The conditions noted are these: Veronica persica, 504 h, dosage 80 g/ha. The method in brief: as §1
For assay [12], the system named is Hordeum murinum. Briefly: Pre-emergence herbicidal activity against HORMU. The conditions noted are these: Hordeum murinum, 504 h, dosage 80 g/ha. In short, it runs like this:
as §1

The subject of assay [13] is Alopecurus myosuroides. Briefly: Post-emergence herbicidal activity against ALOMY. Particulars: Alopecurus myosuroides, 504 h, dosage 320 g/ha, rated visually after about 3 weeks. In short, it runs like this:
(§3)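 Seeds sown in sandy loam, greenhouse-grown; at one-leaf stage (2–3 wk) sprayed with WP/EC in water + 0.5% additive, 600 l/ha. ~3 wk greenhouse hold, then visual % activity vs untreated (100% = plants dead).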

The subject of assay [14] is Echinochloa crus-galli. The experiment in a line: Post-emergence herbicidal activity against ECHCG. Particulars: Echinochloa crus-galli, 504 h, dosage 320 g/ha, rated visually after about 3 weeks. The method in brief: as §3
Assay [15] deals with Lolium rigidum. The experiment in a line: Post-emergence herbicidal activity against LOLRI. Particulars: Lolium rigidum, 504 h, dosage 320 g/ha, rated visually after about 3 weeks. The method in brief: as §3
The subject of assay [16] is Setaria viridis. The experiment in a line: Post-emergence herbicidal activity against SETVI. Particulars: Setaria viridis, 504 h, dosage 320 g/ha, rated visually after about 3 weeks. In short, it runs like this:
as §3

Assay [17] deals with Abutilon theophrasti. Briefly: Post-emergence herbicidal activity against ABUTH. The conditions noted are these: Abutilon theophrasti, 504 h, dosage 320 g/ha, rated visually after about 3 weeks. The method in brief:
as §3

Assay [18] has as its system Amaranthus retroflexus. The experiment in a line: Post-emergence herbicidal activity against AMARE. The conditions noted are these: Amaranthus retroflexus, 504 h, dosage 320 g/ha, rated visually after about 3 weeks. In short, it runs like this:
as §3

The subject of assay [19] is Pharbitis purpurea. The experiment in a line: Post-emergence herbicidal activity against PHBPU. Particulars: Ipomoea purpurea, 504 h, dosage 320 g/ha, rated visually after about 3 weeks. In short, it runs like this: as §3
Assay [20] has as its system Stellaria media. Briefly: Post-emergence herbicidal activity against STEME. The conditions noted are these: Stellaria media, 504 h, dosage 320 g/ha, rated visually after about 3 weeks. In short, it runs like this: as §3
The subject of assay [21] is Viola tricolor. The experiment in a line: Post-emergence herbicidal activity against VIOTR. The conditions noted are these: Viola tricolor, 504 h, dosage 320 g/ha, rated visually after about 3 weeks. In short, it runs like this:
as §3

Assay [22] has as its system Veronica persica. Briefly: Post-emergence herbicidal activity against VERPE. The conditions noted are these: Veronica persica, 504 h, dosage 320 g/ha, rated visually after about 3 weeks. In short, it runs like this: as §3
For assay [23], the system named is Hordeum murinum. Briefly: Post-emergence herbicidal activity against HORMU. Particulars: Hordeum murinum, 504 h, dosage 320 g/ha, rated visually after about 3 weeks. In short, it runs like this:
as §3

Assay [24] can be described thus: Pre-emergence herbicidal action against harmful plants (summary of the tables). The conditions noted are these: 504 h, application rate of 0.08 kg of active substance or less per hectare, read-out: herbicidal action, pre-emergence treatment (very good activity). The method in brief: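 Seeds of weeds and crops were covered with soil, then WP or EC formulations were sprayed onto the soil surface pre-emergence at 600 l/ha water with 0.5% additive. Plants were grown in a greenhouse for about 3 weeks, and damage was scored visually as a percentage versus untreated controls (100% = plants dead).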

Assay [25] deals with Abutilon theophrasti. Briefly: Pre-emergence herbicidal activity against ABUTH. The conditions noted are these: dosage 80 g/ha, scored visually after about 3 weeks vs untreated controls.
From the text: as §2

Assay [26] deals with Avena fatua. Briefly: Post-emergence herbicidal activity against AVEFA. The conditions noted are these: Avena fatua, 504 h, dosage 320 g/ha, rated visually after about 3 weeks. In short, it runs like this: as §3
For assay [27], the system named is Polygonum convolvulus. The experiment in a line: Post-emergence herbicidal activity against POLCO. Particulars: Fallopia convolvulus, 504 h, dosage 320 g/ha, rated visually after about 3 weeks. In short, it runs like this:
as §3

`C=C[C@]1(C(=O)N[C@@H]2CO[C@H](C(=O)NS(C)(=O)=O)C2)CC(c2cc(F)cc(F)c2)=NO1` (mixture of isomers) [Example I-16, (5S)-3-(3,5-difluorophenyl)-N-[cis-5-(methylsulfonylcarbamoyl)tetrahydrofuran-3-yl]-5-vinyl-4H-isoxazole-5-carboxamide]: the pest or weed control at 80 g/ha in the assay on Alopecurus myosuroides [1], in the assay on Avena fatua [2], in the assay with Echinochloa crus-galli [3], with Lolium rigidum [4], in the assay on Setaria viridis [5] and in the assay with Amaranthus retroflexus [6] was 100% each time. Moreover, the pest or weed control at 80 g/ha with Polygonum convolvulus [8] was 100%; in the assay with Stellaria media [9], 100%; with Viola tricolor [10], 100%; with Veronica persica [11], 90%; in the assay with Hordeum murinum [12], 100%; in assay [24], 80 to 100%. The “Pre-emergence herbicidal activity in % against CYPES” value with Cyperus esculentus worked out at 100%. Moreover, in the assay on Pharbitis purpurea [7], the “Pre-emergence herbicidal activity in % against PHBPU” value came out at 90%. Besides, the pest or weed control at 320 g/ha in the assay with Alopecurus myosuroides [13] turned out to be 90%; in the assay on Echinochloa crus-galli [14], 90%; with Lolium rigidum [15], 90%; in the assay with Setaria viridis [16], 80%; with Abutilon theophrasti [17], 80%; in the assay with Amaranthus retroflexus [18], 90%. Further, the pest or weed control at 320 g/ha was 80% in the assay on Pharbitis purpurea [19]; 90% in the assay with Stellaria media [20]; 80% in the assay with Viola tricolor [21]; 80% in the assay with Veronica persica [22]; 80% in the assay with Hordeum murinum [23].
On to `C=C[C@]1(C(=O)N[C@@H]2CO[C@H](C(=O)N(C)C)C2)CC(c2cc(F)cc(F)c2)=NO1` (mixture of isomers) [Example I-17, (5S)-3-(3,5-difluorophenyl)-N-[cis-5-(dimethylcarbamoyl)tetrahydrofuran-3-yl]-5-vinyl-4H-isoxazole-5-carboxamide], for which the pest or weed control at 80 g/ha in the assay on Alopecurus myosuroides [1] is 90%; in the assay on Avena fatua [2], 100%; with Echinochloa crus-galli [3] it was 100%; in the assay with Lolium rigidum [4], 100%; with Setaria viridis [5] it was 100%; in the assay with Amaranthus retroflexus [6] it was 100%. Further, the pest or weed control at 80 g/ha in the assay with Polygonum convolvulus [8] is 100%; in the assay on Stellaria media [9], 100%; in the assay on Viola tricolor [10], 100%; in the assay with Veronica persica [11], 100%; with Hordeum murinum [12], 100%; in assay [24], 80 to 100%. Further, the “Pre-emergence herbicidal activity in % against ABUTH” value in the assay on Abutilon theophrasti [25] is given as 80%. For the same molecule, the “Pre-emergence herbicidal activity in % against PHBPU” value in the assay on Pharbitis purpurea [7] is reported as 90%. The pest or weed control at 320 g/ha with Alopecurus myosuroides [13] stood at 90%; with Avena fatua [26], 90%; in the assay with Echinochloa crus-galli [14], 80%; with Lolium rigidum [15], 90%; with Setaria viridis [16], 90%; with Amaranthus retroflexus [18], 90%. Besides, the pest or weed control at 320 g/ha in the assay with Pharbitis purpurea [19] was 80%; in the assay with Polygonum convolvulus [27], 80%; in the assay with Stellaria media [20], 90%; in the assay with Viola tricolor [21], 80%; with Veronica persica [22], 80%; in the assay on Hordeum murinum [23], 80%.
`CC1(C(=O)NC2COCC2C(=O)N2CCCC2)CC(c2cc(F)cc(F)c2)=NO1` (centres unmarked) [Example I-09, 3-(3,5-difluorophenyl)-5-methyl-N-[4-(pyrrolidine-1-carbonyl)tetrahydrofuran-3-yl]-4H-isoxazole-5-carboxamide]: in the assay with Cyperus esculentus, the “Pre-emergence herbicidal activity in % against CYPES” value is 100%. This molecule had a pest or weed control at 320 g/ha in the assay on Pharbitis purpurea [19] of 80%.
